Assays:
[1] = tested on: professional panel composed of 2 women and 3 men; assay: Tasting of 0.3% NaCl solutions by a professional panel (Example 2); format: in vivo, human
Procedure: (§1) Two solutions were prepared:
A—a solution of 0.3% NaCl and 0.05% MSG
B—a solution of 0.3% NaCl and 3 ppm of N1-geranyl-N2-(2-(pyridin-2-yl)ethyl)oxalamide.
The samples were tasted by a professional panel composed of 2 women and 3 men aged between 30 and 60. The panel agreed that both solutions tasted umami.

[2] = tested on: professional panel composed of 2 women and 3 men; assay: Tasting of NaCl/MSG/ribonucleotide solutions with reduced MSG by a professional panel (Example 3); format: in vivo, human; settings: solution B (0.5% NaCl, 0.05% MSG, 0.010% ribonucleotide mixture, 1.5 ppm compound) vs solution A (0.5% NaCl, 0.15% MSG, 0.025% ribonucleotide mixture)
Procedure: as §1
A—a solution of 0.5% NaCl, 0.15% MSG and 0.025% Ribonucleotide mixture
B—a solution of 0.5% NaCl, 0.05% MSG, 0.010% Ribonucleotide mixture and 1.5 ppm of N1-geranyl-N2-(2-(pyridin-2-yl)ethyl)oxalamide.
The samples were tasted by a professional panel composed of 2 women and 3 men aged between 30 and 60.

[3] = General finding on umami flavour quality; settings: very low dosages; in contrast to many other non-MSG umami flavourants
[4] = solution B (0.3% NaCl, 3 ppm compound) vs solution A (0.3% NaCl, 0.05% MSG)

## N[C@@H](CCC(=O)O)C(=O)[O-].[Na+] [MSG, monosodium glutamate, reference compound]
[1]; solution A: 0.3% NaCl and 0.05% MSG
  umami taste: tasted umami

## CC(C)=CCC/C(C)=C/CNC(=O)C(=O)NCCc1ccccn1 [N1-geranyl-N2-(2-(pyridin-2-yl)ethyl)oxalamide]
[1]; [4]
  further taste attributes compared with solution A: more succulence and sweetness and had more lingering savoury notes
  umami strength compared with solution A: slightly stronger umami
[1]; solution B: 0.3% NaCl and 3 ppm of compound
  umami taste: tasted umami
[2]
  umami strength compared with solution A: equal umami strength

## CC(C)=CCC/C(C)=C/CNC(=O)C(=O)NCCc1ccccn1 [the Umami Compound]
[3]
  umami flavour and its quality: clean, non-artificial taste
